Measured values: paper PMC10096842, “Identification of Flavone Derivative Displaying a 4′-Aminophenoxy Moiety as Potential Selective Anticancer Agent in NSCLC Tumor Cells” (Molecules, 2023)

Legend:
[1] = LogP determination (1-octanol/PBS partition, UV-vis); format: physicochemical; details: 1-octanol/PBS, pH 7.4, 1-octanol/PBS pH 7.4; read-out: Experimental LogP
Experimental: LogP was determined as previously described. Briefly, solutions of each APF were prepared in 1-octanol, and UV-vis spectra were acquired to determine the λmax. After having placed 2.5 mL of each solution in 10 mL conical centrifuge tubes, PBS was added (2.5 mL, pH 7.4) and the biphasic system was mixed using a vortex mixer (VELP Scientifica, Usmate Velate MB, Italy) followed by centrifugation (2000× g, 5 min). Then, the octanol phase absorption was measured at λmax. The partition coefficient Ko/w was calculated according to the following equation:Ko/w = [APF]oct/[APF]PBS = […] where Ai is the initial measured absorbance in octanol, pre-extraction, and Af is the final measured absorbance in octanol, post-extraction.

[2] = tested on: p21 expression in HDF cell line; test: Western blot of p21 expression, HDF; format: cell-based, human; details: APF-1 treatment, 24 h
Experimental: Analysis of cell extracts (20 µg total proteins) was performed using SDS-PAGE 12% (Bio-Rad Laboratories, Hercules, CA, USA). Electrophoresis was carried out under reducing conditions, where uniformly negatively charged proteins move according to their mass. The proteins were then transferred to a PVDF membrane using the Trans-Blot Turbo instrument (Bio-Rad Laboratories, USA), after which the membrane was blocked with Every Blot Blocking Buffer (Bio-Rad Laboratories, USA). P21 protein levels were analyzed by Western blotting using a specific rabbit monoclonal primary antibody that specifically recognizes p21 protein (ab109199, Cambridge, MA, USA), and a secondary antibody anti-rabbit HRP (TA130023, OriGene Technologies, Rockville, MD 20850, USA) and detected by chemiluminescence using the Chemidoc device (Bio-Rad Laboratories, USA). […] GADPH protein levels were analyzed by Western blotting using a specific rabbit monoclonal primary antibody that specifically recognizes this protein (ARC0205, catalog number MA535235, Thermo Scientific, Waltham, MA, USA) and secondary antibody anti-rabbit HRP (TA130023, OriGene Technologies, Rockville, MD 20850, USA), also in this case detected by chemiluminescence with the Chemidoc instrument (Bio-Rad Laboratories, USA).

A549 cells [3] = test: Annexin V-FITC/PI apoptosis flow cytometry, A549; format: cell-based, human
Experimental: Apoptosis was analyzed by flow cytometry using an Annexin V-FITC apoptosis detection kit (Biolegend, San Diego, CA, USA), according to the manufacturer’s instructions. A549, H1975, and HDF cells were treated with […] concentrations of APF-1 (1.5 and 3 µM). […] Briefly, control and treated cells were trypsinized, washed twice with ice-cold PBS, and resuspended in 1X Annexin binding buffer at a final concentration of 1.0 × 10^6 cell/mL. A total of 5 µL Annexin V-FITC and 10 µL Propidium Iodide (PI) were added to the cell suspension and the mixture was incubated for 15 min at rt in the dark. Samples were analyzed using the Guava EasyCyte flow cytometer (Merk-Millipore, Louis Missouri, USA). A total of 5000 events were acquired for each sample. Annexin V-FITC was detected as a green fluorescence (λex = 488 nm; λem = 516 nm) and PI was detected as a red fluorescence (λex = 535 nm; λem = 617 nm). Early apoptosis is defined by Annexin V+/PI− staining, late apoptosis is defined by Annexin V+/PI+ staining, and necrosis is defined by Annexin V−/PI+ staining.

A549 cells [4] = test: Cell cycle analysis (PI, flow cytometry), A549; format: cell-based, human; details: 24 h
Experimental: Cell cycle analyses were performed by using a Guava easyCyte flow cytometer (Merk-Millipore, MA, USA) and the DNA content was determined by propidium iodide (PI) method as previously described. Briefly, A549, H1975, and HDF were treated with APF-1 at 1.5 and 3 µM concentrations for 24 h. Cells were harvested, washed twice with cold PBS, and fixed with 70% ice-cold ethanol and kept at […] for 2 h. The fixed cells were centrifugated at 4 °C and suspended in a master mix solution containing PBS, PI (40 µg/mL), and RNase (100 µg/mL) for 30 min at 37 °C in the dark. Samples were run through the Guava easyCyte flow cytometer set to internal cell cycle analysis protocol and 5000 cells per sample were measured. The percentage of cell cycle phases (G0/G1, S, and G2/M) was quantified using MultiCycle AV Cell Cycle in FCS Express 7 software (DeNovo Software, Pasadena, CA, USA). The experiment was performed three times in triplicate.

In the case of `Nc1ccc(Oc2ccc3oc(-c4cccc(Oc5ccccc5)c4)cc(=O)c3c2)cc1` [APF-1], the logP [1] is reported as 3.2 ± 0.1, the “change in p21 expression” value [2] is reported as “did not observe any significant change” and the “increase in early apoptosis with respect to untreated cells” value (A549 cells [3]; A549, 3 µM, 24 h) is reported as 2 fold. For the same compound, the viability at 1.5 µM (A549 cells [3]; Homo sapiens, A549, 24 h, A549, 1.5 µM, 24 h, read-out: live/viable (Annexin V−PI−) cells) was 86%, the viability at 3 µM (A549 cells [3]; Homo sapiens, A549, 24 h, A549, 3 µM, 24 h, read-out: live/viable (Annexin V−PI−) cells) was 73% and the “induction of apoptosis (sum of early and late apoptosis) with respect to untreated cells” value (A549 cells [3]; cancer cells (A549), Figure 3D) was “about 4 times”. For the same compound, the “increase in G2/M phase compared to the untreated cells” value (A549 cells [4]; A549, 1.5 µM) was 2.8 fold and the “cells in G2/M phase” value (A549 cells [4]; A549, 3 µM) was 75%.
